Measurements reported in patent publication US8604019B2, “Compounds for the treatment and prophylaxis of respiratory syncytial virus disease” (Hoffman-La Roche Inc., priority 2011, dated 2013).

tested on: RSV Long strain (ATCC, catalog number: VR-26); experiment: Viral cytopathic effect (CPE) assay, anti-RSV activity; assay type: cell-based; conditions: human respiratory syncytial virus, 144 h, 6 days, cell viability by Cell Counting kit-8
Method: Viral cytopathic effect (CPE) assay: To measure anti-RSV activity of compounds, 96-well plates are seeded with 6×10^3 cells per well in Dulbecco's modified Eagle's medium (DMEM) containing 10% fetal bovine serum (FBS). Cells are infected the next day with sufficient RSV Long strain (ATCC, catalog number: VR-26) to produce an approximately 80-90% cytopathic effect after 6 days, in the presence of serial half-log diluted compound in a total volume of 200 μL per well. The viability of cells is assessed after 6 days using Cell Counting kit-8 (Dojindo Molecular Technologies). The absorbance at 450 nm and referenced at 630 nm is measured to determine 50% effective concentration (EC50).

| EC50 [µM] | Compound |
| --- | --- |
| 0.03 | Cc1cc2nc(N3CC[S+]([O-])c4ccccc4C3)nc(NC3CNC[C@H]3F)c2s1 (mixture of isomers) [Example 4-1, N—[trans-(±)-4-Fluoropyrrolidin-3-yl]-6-methyl-2-(1-oxido-2,3-dihydro-1,4-benzothiazepin-4(5H)-yl)thieno[3,2-d]pyrimidin-4-amine] |
| 0.215 | NCC(F)(F)CNc1nc(N2CCS(=O)(=O)c3ccccc3C2)nc2ccsc12 [Example 1-1, N-[2-(1,1-Dioxido-2,3-dihydro-1,4-benzothiazepin-4(5H)-yl)thieno[3,2-d]pyrimidin-4-yl]-2,2-difluoropropane-1,3-diamine] |
| 0.255 | NCCCNc1nc(N2CC[S+]([O-])c3ccccc3C2)nc2ccsc12 (centres unmarked) [Example 1-2, N-[2-(1-Oxido-2,3-dihydro-1,4-benzothiazepin-4(5H)-yl)thieno[3,2-d]pyrimidin-4-yl]propane-1,3-diamine] |
| 3.12 | Cc1cc2nc(N3CCNc4ccccc4C3)nc(NCCCN)c2s1 [Example 1-3, N-[6-Methyl-2-(1,2,3,5-tetrahydro-4H-1,4-benzodiazepin-4-yl)thieno[3,2-d]pyrimidin-4-yl]propane-1,3-diamine] |
| 9.47 | NCCCNc1nc(N2CCNc3ccccc3C2)nc2ccsc12 [Example 1-4, N-[2-(1,2,3,5-Tetrahydro-4H-1,4-benzodiazepin-4-yl)thieno[3,2-d]pyrimidin-4-yl]propane-1,3-diamine] |
| 0.384 | NCCCNc1nc(N2CCSc3ccccc3C2)nc2ccsc12 [Example 1-5, N-[2-(2,3-Dihydro-1,4-benzothiazepin-4(5H)-yl)thieno[3,2-d]pyrimidin-4-yl]propane-1,3-diamine] |
| 2.21 | NCCCNc1nc(N2CCOc3ccccc3C2)nc2ccsc12 [Example 1-6, N-[2-(2,3-Dihydro-1,4-benzoxazepin-4(5H)-yl)thieno[3,2-d]pyrimidin-4-yl]propane-1,3-diamine] |
| 0.669 | NCCCNc1nc(N2CCC(F)(F)c3ccccc3C2)nc2ccsc12 [Example 1-7, N-[2-(5,5-Difluoro-1,3,4,5-tetrahydro-2H-2-benzazepin-2-yl)thieno[3,2-d]pyrimidin-4-yl]propane-1,3-diamine] |
| 0.022 | NCC1(CNc2nc(N3CCC(F)(F)c4ccccc4C3)nc3ccsc23)COC1 [Example 1-8, N-{[3-(Aminomethyl)oxetan-3-yl]methyl}-2-(5,5-difluoro-1,3,4,5-tetrahydro-2H-2-benzazepin-2-yl)thieno[3,2-d]pyrimidin-4-amine] |
| 0.667 | NCCCNc1nc(N2CCCc3ccccc3C2)nc2ccsc12 [Example 1-9, N-[2-(1,3,4,5-Tetrahydro-2H-2-benzazepin-2-yl)thieno[3,2-d]pyrimidin-4-yl]propane-1,3-diamine] |
| 0.735 | Cc1cc2nc(N3CCSc4ccccc4C3)nc(NCCCN)c2s1 [Example 1-10, N-[2-(2,3-Dihydro-1,4-benzothiazepin-4(5H)-yl)-6-methylthieno[3,2-d]pyrimidin-4-yl]propane-1,3-diamine] |
| 1.35 | Cc1cc2nc(N3CCOc4ccccc4C3)nc(NCCCN)c2s1 [Example 1-11, N-[2-(2,3-Dihydro-1,4-benzoxazepin-4(5H)-yl)-6-methylthieno[3,2-d]pyrimidin-4-yl]propane-1,3-diamine] |
| 1.01 | Cc1cc2nc(N3CCC(F)(F)c4ccccc4C3)nc(NCCCN)c2s1 [Example 1-12, N-[2-(5,5-Difluoro-1,3,4,5-tetrahydro-2H-2-benzazepin-2-yl)-6-methylthieno[3,2-d]pyrimidin-4-yl]propane-1,3-diamine] |
| 1.44 | Cc1cc2nc(N3CCCc4ccccc4C3)nc(NCCCN)c2s1 [Example 1-13, N-[6-Methyl-2-(1,3,4,5-tetrahydro-2H-2-benzazepin-2-yl)thieno[3,2-d]pyrimidin-4-yl]propane-1,3-diamine] |
| 0.073 | Cc1cc2nc(N3CCS(=O)(=O)c4ccccc4C3)nc(NCCCN)c2s1 [Example 1-14, N-[2-(1,1-Dioxido-2,3-dihydro-1,4-benzothiazepin-4(5H)-yl)-6-methylthieno[3,2-d]pyrimidin-4-yl]propane-1,3-diamine] |
| 0.076 | NCCCNc1nc(N2CCS(=O)(=O)c3ccccc3C2)nc2ccsc12 [Example 1-15, N-[2-(1,1-Dioxido-2,3-dihydro-1,4-benzothiazepin-4(5H)-yl)thieno[3,2-d]pyrimidin-4-yl]propane-1,3-diamine] |
| 0.007 | NC1(CNc2nc(N3CCS(=O)(=O)c4ccccc4C3)nc3ccsc23)COC1 [Example 2-1, N-[(3-Aminooxetan-3-yl)methyl]-2-(1,1-dioxido-2,3-dihydro-1,4-benzothiazepin-4(5H)-yl)thieno[3,2-d]pyrimidin-4-amine] |
| 0.897 | NCC1(Nc2nc(N3CCS(=O)(=O)c4ccccc4C3)nc3ccsc23)COC1 [Example 2-2, N-[3-(aminomethyl)oxetan-3-yl]-2-(1,1-dioxido-2,3-dihydro-1,4-benzothiazepin-4(5H)-yl)thieno[3,2-d]pyrimidin-4-amine] |
| 0.068 | NC1(CNc2nc(N3CC[S@@+]([O-])c4ccccc4C3)nc3ccsc23)COC1 [Example 2-3, N-[(3-Aminooxetan-3-yl)methyl]-2-[(1R)-1-oxido-2,3-dihydro-1,4-benzothiazepin-4(5H)-yl]thieno[3,2-d]pyrimidin-4-amine] |
| 0.003 | NC1(CNc2nc(N3CC[S@+]([O-])c4ccccc4C3)nc3ccsc23)COC1 [Example 2-4, N-[(3-aminooxetan-3-yl)methyl]-2-[(1S)-1-oxido-2,3-dihydro-1,4-benzothiazepin-4(5H)-yl]thieno[3,2-d]pyrimidin-4-amine] |
| 0.026 | Cc1cc2nc(N3CC[S+]([O-])c4ccccc4C3)nc(NCC3(N)COC3)c2s1 (centres unmarked) [Example 3-1, N-[(3-Aminooxetan-3-yl)methyl]-6-methyl-2-(1-oxido-2,3-dihydro-1,4-benzothiazepin-4(5H)-yl)thieno[3,2-d]pyrimidin-4-amine] |
| 0.468 | Cc1cc2nc(N3CC[S+]([O-])c4ccccc4C3)nc(NCC(F)CN)c2s1 (centres unmarked) [Example 3-2, 2-Fluoro-N-[6-methyl-2-(1-oxido-2,3-dihydro-1,4-benzothiazepin-4(5H)-yl)thieno[3,2-d]pyrimidin-4-yl]propane-1,3-diamine] |
| 0.086 | Cc1cc2nc(N3CC[S+]([O-])c4ccccc4C3)nc(NCCN)c2s1 (centres unmarked) [Example 3-3, N-[6-Methyl-2-(1-oxido-2,3-dihydro-1,4-benzothiazepin-4(5H)-yl)thieno[3,2-d]pyrimidin-4-yl]ethane-1,2-diamine] |
| 0.006 | Cc1cc2nc(N3CC[S+]([O-])c4ccccc4C3)nc(NCC3(CN)COC3)c2s1 (centres unmarked) [Example 3-4, N-{[3-(Aminomethyl)oxetan-3-yl]methyl}-6-methyl-2-(1-oxido-2,3-dihydro-1,4-benzothiazepin-4(5H)-yl)thieno[3,2-d]pyrimidin-4-amine] |
| 0.232 | Cc1cc2nc(N3CC[S+]([O-])c4ccccc4C3)nc(NCCCN)c2s1 (centres unmarked) [Example 3-5, N-[6-Methyl-2-(1-oxido-2,3-dihydro-1,4-benzothiazepin-4(5H)-yl)thieno[3,2-d]pyrimidin-4-yl]propane-1,3-diamine] |
| 0.676 | Cc1cc2nc(N3CC[S+]([O-])c4ccccc4C3)nc(NC3CCNC3)c2s1 (centres unmarked) [Example 4-2, 6-Methyl-2-(1-oxido-2,3-dihydro-1,4-benzothiazepin-4(5H)-yl)-N-(pyrrolidin-3-yl)thieno[3,2-d]pyrimidin-4-amine] |

tested on: RSV infection; experiment: not given; conditions: intramuscularly at 15 mg/kg once a month for the duration of RSV season, selected infants; cited from earlier work

| Compound | reduction of hospitalization rate caused by RSV infection |
| --- | --- |
| palivizumab: a humanized monoclonal antibody against RSV fusion (F) protein approved for prophylaxis in high-risk infants | 45-55% |

tested on: established RSV infection; experiment: not given; conditions: in vivo; cited from earlier work

| Compound | efficacy in treatment of established RSV infection |
| --- | --- |
| palivizumab: a humanized monoclonal antibody against RSV fusion (F) protein approved for prophylaxis in high-risk infants | not effective |

tested on: RSV; experiment: not given; conditions: Phase III clinical trials; cited from earlier work

| Compound | benefit over palivizumab |
| --- | --- |
| motavizumab: A newer version monoclonal antibody designed as potential replacement of palivizumab | failed to show additional benefit over palivizumab |
